Results published in ChEMBL document CHEMBL5154862, “Structure-Based Discovery of MDM2/4 Dual Inhibitors that Exert Antitumor Activities against MDM4-Overexpressing Cancer Cells” (J Med Chem, 2022).
Calls of active or inactive are those of the source. The calls are words filed in the database; no cut-off is given here.

How the values were obtained:
[1] = Cmax in ICR mouse at 15 mg/kg, po measured upto 24 hrs by LC-MS/MS analysis; format: ADME, organism-based; design: time < 24 hrs, dose 15 mg/kg, route po; settings: in vivo
[2] = AUC in ICR mouse at 15 mg/kg, po measured upto 24 hrs by LC-MS/MS analysis; format: ADME, organism-based; design: time < 24 hrs, dose 15 mg/kg, route po; settings: in vivo
[3] = Oral bioavailability in ICR mouse at 15 mg/kg measured upto 24 hrs by LC-MS/MS analysis; format: ADME, organism-based; settings: in vivo
U2OS [4] = assay: Upregulation of p21 protein expression in human U2OS cells at 2.5 uM measured after 24 hrs by Western blot analysis; format: functional, cell-based
U2OS [5] = assay: Upregulation of MDM2 protein expression in human U2OS cells at 2.5 uM measured after 24 hrs by Western blot analysis; format: functional, cell-based
MCF7 [6] = assay: Upregulation of p21 protein expression in human MCF7 cells at 2.5 uM measured after 24 hrs by Western blot analysis; format: functional, cell-based
RKO [7] = assay: Upregulation of MDM2 gene expression in human RKO cells at 0.31 uM incubated for 24 hrs by qPCR analysis; format: functional, cell-based
MCF7 [8] = assay: Upregulation of p53 protein expression in human MCF7 cells at 2.5 uM measured after 24 hrs by Western blot analysis; format: functional, cell-based
RKO [9] = assay: Upregulation of p21 gene expression in human RKO cells at 0.31 uM incubated for 24 hrs by qPCR analysis; format: functional, cell-based
HCT-116 [10] = assay: Upregulation of p53 protein expression in human HCT-116 cells at 2.5 uM measured after 24 hrs by Western blot analysis; format: functional, cell-based
HCT-116 [11] = assay: Upregulation of MDM2 protein expression in human HCT-116 cells at 2.5 uM measured after 24 hrs by Western blot analysis; format: functional, cell-based
HCT-116 [12] = assay: Upregulation of p21 protein expression in human HCT-116 cells at 2.5 uM measured after 24 hrs by Western blot analysis; format: functional, cell-based
NCI-H460 [13] = assay: Upregulation of p53 protein expression in human NCI-H460 cells at 2.5 uM measured after 24 hrs by Western blot analysis; format: functional, cell-based
NCI-H460 [14] = assay: Upregulation of p21 protein expression in human NCI-H460 cells at 2.5 uM measured after 24 hrs by Western blot analysis; format: functional, cell-based
U2OS [15] = assay: Effect on MDM4 protein expression in human U2OS cells at 2.5 uM measured after 24 hrs by Western blot analysis; format: functional, cell-based
MCF7 [16] = assay: Effect on MDM4 protein expression in human MCF7 cells at 2.5 uM measured after 24 hrs by Western blot analysis; format: functional, cell-based
NCI-H460 [17] = assay: Downregulation of MDM4 protein expression in human NCI-H460 cells at 2.5 uM measured after 24 hrs by Western blot analysis; format: functional, cell-based
RKO [18] = assay: Upregulation of p21 gene expression in human RKO cells incubated for 24 hrs by qPCR analysis; format: functional, cell-based; settings: dose 0.3125-2.5 µM, DDE = dose-dependent effect
[19] = Displacement of 5-FAM labeled PDI peptide from MDM4 C17S mutant (14 to 111 residues) (unknown origin) expressed in Escherichia coli BL21 (DE3) assessed as inhibition constant incubated for 1.5 hrs by fluorescence polarization competition assay; design: species or system Homo sapiens
[20] = target: E3 ubiquitin-protein ligase Mdm2 (Homo sapiens, UniProt Q00987); assay: Displacement of 5-FAM labeled PDI peptide from MDM2 (1 to 118 residues) (unknown origin) expressed in Escherichia coli BL21 (DE3) assessed as inhibition constant incubated for 1.5 hrs by fluorescence polarization competition assay
Sequence of E3 ubiquitin-protein ligase Mdm2 (Q00987 whole entry, the tested form may be a part): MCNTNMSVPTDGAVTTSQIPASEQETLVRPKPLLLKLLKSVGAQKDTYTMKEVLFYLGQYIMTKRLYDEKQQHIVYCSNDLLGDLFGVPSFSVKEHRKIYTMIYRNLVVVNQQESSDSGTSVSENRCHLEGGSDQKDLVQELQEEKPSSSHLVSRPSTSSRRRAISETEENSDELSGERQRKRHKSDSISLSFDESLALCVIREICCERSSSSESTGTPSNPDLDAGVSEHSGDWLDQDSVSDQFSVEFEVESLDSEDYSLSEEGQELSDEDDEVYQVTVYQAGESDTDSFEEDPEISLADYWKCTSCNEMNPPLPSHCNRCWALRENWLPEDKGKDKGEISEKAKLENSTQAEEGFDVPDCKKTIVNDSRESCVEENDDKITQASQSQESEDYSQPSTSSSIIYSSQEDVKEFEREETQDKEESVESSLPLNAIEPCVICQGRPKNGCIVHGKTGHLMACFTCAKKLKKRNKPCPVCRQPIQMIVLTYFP

[21] = target: Cyclin-dependent kinase inhibitor 1 (Homo sapiens) (UniProt P38936); assay: Activation of p21 in human HCT-116 cells incubated for 24 hrs by Western blot analysis; format: cell-based; settings: filed as activator, dose 0.078125-2.5 µM, DDE = dose-dependent effect
Sequence of Cyclin-dependent kinase inhibitor 1 (Homo sapiens) (P38936 whole entry): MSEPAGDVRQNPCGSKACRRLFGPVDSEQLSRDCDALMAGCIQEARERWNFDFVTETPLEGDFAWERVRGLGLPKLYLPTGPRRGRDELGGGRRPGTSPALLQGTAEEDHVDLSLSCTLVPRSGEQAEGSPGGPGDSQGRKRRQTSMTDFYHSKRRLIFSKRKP

[22] = Cytotoxicity against HEK293 cells assessed as cell growth inhibition incubated for 4 days by CCK-8 assay; format: toxicity, cell-based; settings: human
RKO [23] = assay: Upregulation of p21 expression in human RKO cells incubated for 24 hrs by Western blot analysis; format: functional, cell-based; settings: dose 0.3125-2.5 µM, DDE = dose-dependent effect
RKO [24] = assay: Upregulation of MDM2 expression in human RKO cells incubated for 24 hrs by Western blot analysis; format: functional, cell-based; settings: dose 0.3125-2.5 µM, DDE = dose-dependent effect
RKO [25] = assay: Downregulation of MDM4 expression in human RKO cells at 0.3125 to 2.5 uM incubated for 24 hrs by Western blot analysis; format: functional, cell-based; settings: dose 0.3125-2.5 µM
RKO [26] = assay: Upregulation of MDM2 gene expression in human RKO cells incubated for 24 hrs by qPCR analysis; format: functional, cell-based; settings: dose 0.3125-2.5 µM, DDE = dose-dependent effect
RKO [27] = assay: Upregulation of PUMA gene expression in human RKO cells incubated for 24 hrs by qPCR analysis; format: functional, cell-based; settings: dose 0.3125-2.5 µM, DDE = dose-dependent effect
RKO [28] = assay: Induction of apoptosis in human RKO cells assessed as viable cells at 6.25 uM measured after 48 hrs by Annexin V-FITC/PI staining based flow cytometry analysis (reference value: 93.54 %); format: functional; settings: read-out: Activity
RKO [29] = assay: Induction of apoptosis in human RKO cells assessed as early apoptotic cells at 6.25 uM measured after 48 hrs by Annexin V-FITC/PI staining based flow cytometry analysis (reference value: 3.56 %); format: functional
RKO [30] = assay: Induction of apoptosis in human RKO cells assessed as late apoptotic cells at 6.25 uM measured after 48 hrs by Annexin V-FITC/PI staining based flow cytometry analysis (reference value: 0.82 %); format: functional
RKO [31] = assay: Induction of apoptosis in human RKO cells assessed as necrotic cells at 6.25 uM measured after 48 hrs by Annexin V-FITC/PI staining based flow cytometry analysis (reference value: 2.08 %); format: functional
RKO [32] = assay: Induction of apoptosis in human RKO cells assessed as early apoptotic cells at 12.5 uM measured after 48 hrs by Annexin V-FITC/PI staining based flow cytometry analysis (reference value: 3.56 %); format: functional
RKO [33] = assay: Induction of apoptosis in human RKO cells assessed as late apoptotic cells at 12.5 uM measured after 48 hrs by Annexin V-FITC/PI staining based flow cytometry analysis (reference value: 0.82 %); format: functional
RKO [34] = assay: Induction of apoptosis in human RKO cells assessed as necrotic cells at 12.5 uM measured after 48 hrs by Annexin V-FITC/PI staining based flow cytometry analysis (reference value: 2.08 %); format: functional
RKO [35] = assay: Induction of apoptosis in human RKO cells assessed as late apoptotic cells at 25 uM measured after 48 hrs by Annexin V-FITC/PI staining based flow cytometry analysis (reference value: 0.82 %); format: functional
RKO [36] = assay: Induction of apoptosis in human RKO cells assessed as necrotic cells at 25 uM measured after 48 hrs by Annexin V-FITC/PI staining based flow cytometry analysis (reference value: 2.08 %); format: functional
HCT-116 [37] = assay: cells; settings: Homo sapiens, HCT-116, 96 h
RKO [38] = assay: cells; settings: Homo sapiens, 96 h
MCF7 [39] = assay: cells; settings: Homo sapiens, MCF7, 96 h
NCI-H460 [40] = assay: cells; settings: Homo sapiens, NCI-H460, 96 h
U2OS [41] = assay: cells; settings: Homo sapiens, 96 h

COc1cc(C(=O)O)ccc1NC(=O)[C@@H]1N[C@@H](CC(C)(C)C)[C@](CNCc2ccncc2)(c2ccc(Cl)cc2F)[C@H]1c1cccc(Cl)c1F
Cmax [1]: 1080 ng/mL
AUC at 24 h [2]: 1990 ng·h/mL
bioavailability [3]: 13.5%
Activity (U2OS [4]): Active
Activity (U2OS [5]): Active
Activity (MCF7 [6]): Active
Activity (RKO [7]): Active
Activity (MCF7 [8]): Active
Activity (RKO [9]): Active
Activity (HCT-116 [10]): Active
Activity (HCT-116 [11]): Active
Activity (HCT-116 [12]): Active
Activity (NCI-H460 [13]): Active
Activity (NCI-H460 [14]): Active
Activity (U2OS [15]): Active
Activity (MCF7 [16]): Active
Activity (NCI-H460 [17]): Active
Activity (RKO [18]): Dde
Ki [19]: 643 nM
Ki [20]: 1.1 nM
Activity [21]: Dde
IC50 at 4 days [22]: 6250 nM
Activity (RKO [23]): Dde
Activity (RKO [24]): Dde
Activity (RKO [25]): Active
Activity (RKO [26]): Dde
Activity (RKO [27]): Dde
viability at 6.25 µM (RKO [28]): 74.5%
Activity (RKO [29]): 6.28%
Activity (RKO [30]): 3.15%
Activity (RKO [31]): 16.09%
Activity (RKO [32]): 9.54%
Activity (RKO [33]): 3.81%
Activity (RKO [34]): 1.6%
Activity (RKO [35]): 57.01%
Activity (RKO [36]): 1.31%
IC50 (HCT-116 [37]): 50.7 nM
IC50 (RKO [38]): 200 nM
IC50 (MCF7 [39]): 520 nM
IC50 (NCI-H460 [40]): 460 nM
IC50 (U2OS [41]): 370 nM
